From ChEMBL document CHEMBL1149030, “Discobahamins A and B, new peptides from the Bahamian deep water marine sponge Discodermia sp” (1994)
In brackets after ≈: the same amount, converted by molar mass.

Experiments:
Candida albicans [1] = assay: Antifungal activity against mycelial form of Candida albicans; assay type: functional
Candida albicans [2] = assay: Antifungal activity against yeast form of Candida albicans; assay type: functional

Compound | MIC (Candida albicans [1]) [µg/mL] | MIC (Candida albicans [2]) [µg/mL]
CCC[C@@H](NC(=O)C(O)C(C)CC)C(=O)N[C@H]1CCCNC(=O)[C@H](Cc2c[nH]c3ccc(O)cc23)NC(=O)/C=C/c2coc(n2)[C@H](C)NC(=O)C(=O)[C@H](CC(C)C)NC(=O)[C@@H]2CCCN2C1=O (some centres undefined) [DISCOBAHAMIN A] | 50 (≈ 53.6 µM) | 25 (≈ 26.8 µM)
CCC(C)C(O)C(=O)N[C@H](CC(C)C)C(=O)N[C@H]1CCCNC(=O)[C@H](Cc2c[nH]c3ccc(O)cc23)NC(=O)/C=C/c2coc(n2)[C@H](C)NC(=O)C(=O)[C@H](CC(C)C)NC(=O)[C@@H]2CCCN2C1=O (some centres undefined) [DISCOBAHAMIN B] | 50 (≈ 52.8 µM) | 25 (≈ 26.4 µM)
